Tests used:
[1] = test system: parietal cells in corpus-stomach mucosoid culture; details: BMP4-induced corpus mucosoid culture; 10 μl of 5 mM Histamin solution
Experimental: Specific signals are needed to drive the parietal cell lineages and in particular the activation of BMP4 and the suppression MEK/MAPK pathway.
Three corpus samples were taken at passage 4 in ALI and grown for 13 days in regular medium following by 2 weeks treatment with 50 ng/ml of BMP4 and removal of Noggin and EGF. The Corpus-gEPMs on filters were pre-incubated with […] Acridine Orange for 15 min. The filter was cut out of the insert and mounted with the cells facing the glass on a IBIDI chamber with 400 μl of media (the same with AO). A coverslip was put on top. Images were taken with 25× (Glycerol) for 10 min to stabilize the filter and avoid movements. A solution of 10 μl of 5 mM Histamin in medium was applied on the border of the coverslip while imaging. Fluorescence of acridine orange was excited at 488 nm (3-4%) and images were collected in a time series (10sec) at 500-550 nm and 600-650.

[2] = test system: IL-8 expression in gastric-antrum mucosoid cultures; test: Pro-inflammatory stimulation of gastric-antrum mucosoid cultures, IL-8 qPCR; assay type: cell-based, human; details: 10 μg/ml TNF-α or 5 μg/ml IL-1β for 3 days; +W+R and −W−R cultures
Experimental: Filters were cut out of the insert and directly transferred to a tube containing 1 ml Trizol (Thermo). After vortexing samples were incubated for 10 min at RT, vortexed again and frozen at −80° C. for long-term storage. 500 μl of chloroform was added to thawed samples before vortexing, incubation for 2 min at RT and centrifugation for 15 min at 4° C. The aqueous phase was mixed with isopropanol, inverted 6× and incubated for 10 min at RT. The sample was transferred to a total RNA isolation Kit column (Thermo) and processed according to the manufacturer's instructions. Total RNA was measured using a NanoDrop and reverse transcription carried out using the Tetro cDNA synthesis Kit (Bioline). DNA was extracted using AllPrep DNA/RNA Mini Kit (Qiagen) according to the manufacturer's instructions; Total DNA was measured using a NanoDrop. qPCR (Step One, Applied Biosystem) was performed using the SensiMix™ SYBR® hi-ROX Kit (Bioline, 3-step cycling according to the manufacturer).
FIG. 16. Antral mucosoid cultures derived from 3 different patients were cultivated for 13 days. Parallel samples were differentiated by excluding Wnt3A and RSPO1 from the culture for 5 days (A)(B) treatment with 10 μg/ml TNF-α or 5 μg/ml IL-1Iβ for 3 days. Expression of IL-8 was analysed by qPCR and normalized to untreated control cells in +W+R medium. ns: not significant; *p<0.005, unpaired t-test. […]

[3] = test system: ATP4B+ parietal cells in gastric-corpus derived mucosoid cultures; test: BMP4-induced parietal cell differentiation in corpus-stomach mucosoid culture (ATP4B IF); assay type: cell-based, human; details: 50 ng/ml BMP4 for two weeks, absence of Noggin and EGF; untreated 0,4%

Molecule: NCCc1c[nH]cn1 [histamine]
- acid production (acridine orange changes to orange) [1]: able to produce acid

Molecule: IL1-β: recombinant pro-inflammatory cytokine
- IL-8 expression (qPCR) [2]: induced IL-8 preferentially in +W+R cultures

Molecule: TNF-α
- IL-8 expression (qPCR) [2]: induced IL-8 expression regardless of W/R

B1: BMP4: BMP pathway activator provided at 50 ng/ml to drive parietal cell lineage (protein, UniProt P12644 293-408, looked up)
Bone morphogenetic protein 4: SPKHHSQRARKKNKNCRRHSLYVDFSDVGWNDWIVAPPGYQAFYCHGDCPFPLADHLNSTNHAIVQTLVNSVNSSIPKACCVPTELSAISMLYLDEYDKVVLKNYQEMVVEGCGCR
- ATP4B+ parietal cells [3]: 2,4%

Reference: patent US12351829B2, “Generation, proliferation and expansion of epithelial cells from primary tissue into mucosoid cultures” (Max-Planck-Gesellschaft zur Förderung der Wissenschaften …, priority 2018, dated 2025)
